Tests used:
[1] = Histopathological examination of liver and kidney (H&E); format: in vivo, mice
Description: (§1) We randomly divided 50 mice into groups 5 groups (10 mice in each group): normal control (I) (mice injected intraperitoneally with the same volume of solvent for 14 consecutive days); group II, a group of normal mice treated with compound 4 (mice injected intraperitoneally with newly produced compound 4 at a dose of 6 mg/kg per day for 14 days); group III, solid tumor group (mice were implanted with solid tumor); group IV, group were treated with 5-FU (after 10 days of tumor implantation, mice were treated with 6 mg/kg only once); and group V, solid tumor group were treated with compound 4 (after 10 days of tumor implantation, mice were treated with 6 mg/kg only once). after one day of the previous treatment, 10 mice from each group were sacrificed and tumor weight, tumor volume (length and width of solid femoral tumor), blood and liver samples were obtained from each group. A portion of each blood sample taken was used for complete blood count (CBC) and the rest was centrifuged to obtain the serum. Serum was used for biochemical parameter estimation. The livers were rapidly dissected, washed with isotonic saline, and dried. The experiment design is summarized in Supplementary Figure S3.
Complete blood counts (CBCs) were counted using an AbbottCELLDYN®1800 Automated Hematology Analyzer (Abbott Park, IL, USA) equipped with an off-the-shelf kit (Abbott Laboratories, Abbott Park, IL, USA). For microscopic histopathological examination, tumor and kidney slices were maintained in 10% formalin, dehydrated with graduated alcohol, embedded in paraffin sections, H&E stained, and hematoxylin stained.
Specimens from mice liver cells were fixed in 10% formalin saline. Then, the samples were dehydrated with ascending series of ethanol and embedded in paraffin. A […] thick section was stained with hematoxylin and eosin and examined under a light microscope.

[2] = Serum biochemical parameters in mice; format: in vivo; settings: 6 mg/Kg BW
Description: as §1
Evaluation of the activities of aspartate aminotransferase (AST) and alanine aminotransferase (ALT) using a commercial kit (ELITech Clinical Systems, France). The serum albumin level was measured using a kit obtained from STANBIO Company (USA). A commercial kit from the BioDiagnostic Company (Cairo, Egypt) was used to evaluate creatinine and urea levels.

[3] = system: P53, PUMA, Caspase 3, 8, 9, Bcl-2, PI3K, AKT genes in HepG2 cells; assay: Gene expression (RT-PCR) of apoptosis-related genes; format: cell-based, human; settings: HepG2, IC50 concentration, 48 h, control = 1
Description: The target genes of P53, PUMA, Caspases 3, 8, and 9, Bcl-2, PI3K, and AKT were chosen according to the interactive functional association network of the tested protein set using String bioinformatics database for analysis as shown in Supplementary Figure S1. HepG2 cells were treated for 48 h at 37 °C with the IC50 value of the compound 4 and followed by real-time PCR analysis for control and treated cells of the following genes, P53, PUMA, BCL2, CASP3, CASP8, CASP9, PI3k, and AKT, using the specific primers mentioned in Supplementary Table S3 compared to the control cells. Relative gene expression was calculated utilizing the ΔΔCT equation with normalization to the housekeeping beta-actin gene. Results were shown as a fold change in the mentioned gene expression in the treated versus control cells.
HepG2 cells were treated for 48 h at 37 °C with the IC50 value of the compound 4 and were collected for real-time PCR analysis with the perfect primer pairs (Supplementary, Table 1) of the following eight genes (P53, PUMA, BCL2, CASP3, CASP8, CASP9, PI3k and AKT) compared to the control cells, and for analysis first total RNA was extracted using RNeasy Mini Kit (Qiagen) following the manufacturer protocol of the kits than RNA was assessed for both the quality and quantity of RNA using NanoDrop ND-1000 spec-trophotometer at the absorbance ratio 260/280 nm [NanoDrop Tech., Inc. DE, USA]. Also, Whole RNA quality was examined by 1% agarose gel electrophoresis and afterward cDNA was obtained from one μg RNA using I-Script cDNA synthesis kit (BioRad). qRT-PCR were executed utilizing 10 ng of cDNA and Applied Biosystems Sybr Green master […]
conditions were 5 min [95 ◦C], followed by 45 cycles for 15 s [95 ◦C], for 60 s [58, 60, 62 ◦C] and for 1 min [72 ◦C] using applied Biosystems Step-One qRT-PCR (USA). Relative genes expression was finally calculated utilizing the ΔΔCT equation with normalization to that of the housekeeping beta-actin gene. Results were shown as fold change in gene expres-sion in the treated cells versus that of the control. […]

[4] = system: THLE-2 normal liver cells; assay: MTT assay, normal liver cells; format: cell-based; settings: Homo sapiens, THLE-2, mean ± SE, n = 3
HepG2 liver cancer cells = assay: MTT assay for cytotoxic screening, HepG2; format: cell-based, human; settings: Homo sapiens, HepG2, 48 h, mean ± SE, n = 3
Description: The in vitro anti-cancer activity was assessed using the MTT assay. […] Staurosporine and 5-FU were used as reference drugs. HepG2 cells (1 × 10^4 cells/well, 96-well plate) were maintained in DMEM media supplemented with 2mML-glutamine (Lonza, Verviers, Belgium) and 10% FBS (Sigma, St. Louis, MO, USA), 1% Penicillin/Streptomycin (Lonza, Verviers, Belgium) according to the routine culture work. Cultures were incubated for 48 h with serial dilutions (0.01, 0.1, 1, 10, 100 µM) of the tested compounds. Finally, cell viability was determined by measuring the absorbance λ570 nm according to the following formula: % of cell viability = (A sapmple/A control) ×100, then IC50 calculation was calculated using GraphPad Prism 7 software.

HepG2 cells = assay: Colony forming assay; format: cell-based, human; settings: HepG2, 100 μM
Description: HepG2 cells were allowed to attach to form a complete monolayer after seeding 200 cells per well (6-well plate) for 24 h. Five concentrations of compound 4 (0.01, 0.1, 1, 10, 100 µM) were added to the cultured cells, and cells were incubated for 48 h, followed by washing with PBS. After 7 days of incubation, the colonies were fixed and stained with 1% crystal violet in methanol for 3 h. Finally, the crystal violet stain was used for 20 min to stain and count the cells using the light microscope.

For `O=C1NC(=S)N(c2ccc(O)cc2)/C1=C/c1cccs1` [Compound 4, (E)-1-(4-Hydroxyphenyl)-5-(thiophen-2-ylmethylene)-2-thioxoimidazolidin-4-one], the kidney histopathology ([1]; SEC-bearing mice treated) was “almost normal, intact renal corpuscles and tubules”, the liver histopathology ([1]; SEC-bearing mice treated) was “liver lobules looking normal” and the liver histopathology ([1]; normal mice treated) was “normal-looking liver lobules; some hepatocytes showed a hydropic degeneration and a balloon degeneration”. For the same molecule, the Creatinine ([2]; SEC-bearing mice) was 1.0 ± 0.1 mg/dL, the Albumin ([2]; SEC-bearing mice, SEC control 4.01 ± 0.4) was 3.43 ± 0.1 g/dL and the “Total Protein” value ([2]; SEC-bearing mice, SEC control 6.6 ± 0.4) was 7.4 ± 0.2 g/dL. For the same molecule, the Urea ([2]; SEC-bearing mice, SEC control 25.2 ± 2.3) was 27 ± 1.5 mg/dL, the AST ([2]; SEC-bearing mice, SEC control 48.9 ± 5.5) was 37.8 ± 8.4 U/L and the ALT ([2]; SEC-bearing mice, SEC control 50 ± 2.7) was 37.4 ± 10.4 U/L. The Creatinine ([2]; normal mice, normal control 1.6 ± 0.2) was 1.1 ± 0.2 mg/dL, the Albumin ([2]; normal mice, normal control 4.4 ± 0.4) was 4.4 ± 0.8 g/dL and the “Total Protein” value ([2]; normal mice, normal control 6.9 ± 0.4) was 6.9 ± 1.5 g/dL. For the same molecule, the Urea ([2]; normal mice, normal control 27.8 ± 2.6) was 28.13 ± 2.7 mg/dL, the ALT ([2]; normal mice, normal control 35.3 ± 3.8) was 43.25 ± 7.4 U/L and the AST ([2]; normal mice, normal control 37.4 ± 2.8) was 44.9 ± 10.8 U/L. For the same molecule, the “AKT gene expression, fold change” value ([3]; reduced) was 0.38 fold, the “BCL-2 gene expression, fold change” value ([3]; reduced) was 0.25 fold and the “PI3K gene expression, fold change” value ([3]; reduced) was 0.497 fold. For the same molecule, the “Caspase 3 gene expression, fold change” value ([3]; upregulation) was 10.71 fold, the “Caspase 8 gene expression, fold change” value ([3]; upregulation) was 1.98 fold and the “Caspase 9 gene expression, fold change” value ([3]; upregulation) was 7.14 fold. For the same molecule, the “P53 gene expression, fold change” value ([3]; upregulation) was 7.61 fold, the “PUMA gene expression, fold change” value ([3]; upregulation) was 2.31 fold and the IC50 [4] was 56.6 ± 1.5 µM. It also gave an IC50 (HepG2 liver cancer cells) of 0.017 ± 0.004 µM, a number of colonies (HepG2 cells; 464 in control) of 136 and an inhibition at 100 µM (HepG2 cells; Homo sapiens, 48 h treatment, read-out: colony inhibition rate) of roughly 88%.

— article PMC8746798, “Evaluation of 2-Thioxoimadazolidin-4-one Derivatives as Potent Anti-Cancer Agents through Apoptosis Induction and Antioxidant Activation: In Vitro and In Vivo Approaches” (Molecules, 2021)
